From PMC10587169, “Tuning aminopolycarboxylate chelators for efficient complexation of trivalent actinides” (Scientific Reports, 2023)
Like-named read-outs stand apart in the source and are kept apart here.

What was measured:
[1] = Spectrophotometric titration; type: binding; conditions: I = 2.0 M (Na+/H+)ClO4 at 20.0 °C, not marked potentiometry (spectrophotometric titration)
[2] = Spectrophotometric titration; type: binding; conditions: spectrophotometrically measured, I = 2.0 M (Na+/H+)ClO4, T = 25 ± 1 °C, ±3σ
Source text: Changes in the optical absorption characteristics of Nd^3+ were monitored using a Cary 6000i UV/Vis–NIR Spectrometer (Agilent) using 1 cm semimicro quartz cuvettes (Starna) in double-beam mode, where the ^4I9/2 → ^4G5/2, ^2G7/2 transitions[34] were monitored between 560 and 605 nm with a 0.075 nm interval and 1.0 nm spectral bandwidth. Changes in the optical absorption characteristics of ^243Am^3+ and ^248Cm^3+ were monitored using a Flame-S-VIS–NIR-ES spectrometer coupled to a DH-2000-BAL dual-mode light source (Ocean Optics) with a single 1 cm semimicro quartz cuvette (Starna). […] The complexation of Am^3+ with the ligands was monitored in the 495–525 nm spectral region, looking at the ^7F0′ → ^5L6′ transition[23],[35]. For Cm^3+, ligand complexation was monitored in the 365–410 nm spectral region, looking at the ^8S7/2 → ^2Ji (i = {15}, {13,9}, {11,17}) manifold transitions[24],[25],[36]. Changes in aqueous p[H^+] were monitored throughout each titration step using a Gran-calibrated Orion Ross Semi-micro glass electrode. […] Finally, the spectroscopic data was analyzed using the HypSpec software package[33],[37]. […]
To further validate the competitive solvent extraction methodology the complexation of Am^3+ with H4octapa and Cm^3+ with H4pypa-peg was studied spectrophotometrically. […] The presence of both ligands induced new red-shifted absorption signatures in each monitored titration. […]

[3] = cited from earlier work

## O=C(O)CN(CCN(CCN(CC(=O)O)CC(=O)O)CC(=O)O)CCN(CC(=O)O)CC(=O)O [H6ttha, triethylenetetraamine-N,N,N',N'',N''',N'''-hexaacetic acid]
[1]
  logβ121 (MH2L), Nd3+: 27.7(1)

## O=C(O)CN(Cc1cc(-c2cn(CCOCCOCCO)nn2)cc(CN(CC(=O)O)Cc2cccc(C(=O)O)n2)n1)Cc1cccc(C(=O)O)n1 [H4pypa-peg, 6,6'-((((4-(1-(2-(2-(2-hydroxyethoxy)ethoxy)ethyl)-1H-1,2,3-triazol-4-yl)pyridine-2,6-diyl)bis–(methylene))bis–((carboxymethyl)azanediyl))bis–(methylene)) dipicolinic acid]
[2]
  logβ101 (ML), Cm3+: 20.37 (2)

## O=C(O)CN(CCN(CC(=O)O)Cc1cccc(C(=O)O)n1)Cc1cccc(C(=O)O)n1 [H4octapa, 6,6′-((ethane-1,2-diylbis–((carboxymethyl)azanediyl))bis–(methylene))dipicolinic acid]
[3]; I = 0.15 M NaCl at 25 °C
  pKa H2L2-: 5.40 (1)
  pKa H3L-: 3.65 (1)
  pKa H4L(aq): 2.97 (1)
  pKa H5L+: 1.66 (1)
  pKa HL3-: 8.52 (1)
[3]; I = 0.16 M NaCl at 25 °C
  pKa H2L2-: 5.43 (2)
  pKa H3L-: 3.75 (1)
  pKa H4L(aq): 3.08 (1)
  pKa H5L+: 2.21 (2)
  pKa H6L2+: 1.61 (2)
  pKa H7L3+: 0.12 (4)
  pKa HL3-: 8.58 (1)
